Each block holds one molecule with its values, some of them ahead of it.
How the values were obtained:
Test in all cases: cells
DU-145 = settings: Homo sapiens, DU-145, 144 h, read-out: Unesbulin (PTC-596)
A-549 = settings: Homo sapiens, A549, 144 h, read-out: Unesbulin (PTC-596)
U-118 = settings: 144 h, read-out: Unesbulin (PTC-596)
Karpas-299 = settings: Homo sapiens, KARPAS-299, 144 h, read-out: Unesbulin (PTC-596)
REC-1 = settings: Homo sapiens, Rec1, 144 h, read-out: Unesbulin (PTC-596)
PLC-PRF5 = settings: Homo sapiens, PLC-PRF-5, 144 h, read-out: Unesbulin (PTC-596)
HRT-18 = settings: Homo sapiens, HRT-18, 144 h, read-out: Unesbulin (PTC-596)
SK-N-MC = settings: Homo sapiens, SK-N-MC, 144 h, read-out: Unesbulin (PTC-596)
HUT-78 = settings: Homo sapiens, HuT78, 144 h, read-out: Unesbulin (PTC-596)
U2OS = settings: Homo sapiens, U2OS, 144 h, read-out: Unesbulin (PTC-596)
CCRF-CEM = settings: Homo sapiens, CCRF-CEM, 144 h, read-out: Unesbulin (PTC-596)
HGC-27 = settings: Homo sapiens, HGC-27, 144 h, read-out: Unesbulin (PTC-596)
HEP-2 = settings: Homo sapiens, HEp-2, 144 h, read-out: Unesbulin (PTC-596)
SW-872 = settings: Homo sapiens, SW872, 144 h, read-out: Unesbulin (PTC-596)
A4573 = settings: A4573, 144 h, read-out: Unesbulin (PTC-596)
NALM-6 = settings: Homo sapiens, NALM-6, 144 h, read-out: Unesbulin (PTC-596)
HL-60 = settings: Homo sapiens, HL-60, 144 h, read-out: Unesbulin (PTC-596)
WEHI-164 = settings: Mus musculus, WEHI-164, 144 h, read-out: Unesbulin (PTC-596)
H-1299 = settings: Homo sapiens, NCI-H1299, 144 h, read-out: Unesbulin (PTC-596)
U87-MG = settings: Homo sapiens, U-87 MG, 144 h, read-out: Unesbulin (PTC-596)
PANC-1 = settings: Homo sapiens, PANC-1, 144 h, read-out: Unesbulin (PTC-596)
CHRF = tested on: CHRF; set-up: species or system CMK; settings: 72 h, read-out: Doxorubicin (IC50 nM)
MESSA = tested on: MESSA; set-up: species or system MES-SA/Mx2; settings: Homo sapiens, MES-SA, read-out: MES-SA
CMK = tested on: CMK; set-up: species or system CHRF; settings: Homo sapiens, 72 h, read-out: Doxorubicin (IC50 nM)

IC50 (DU-145): 17 nM
IC50 (A-549): 13 nM
IC50 (U-118): 33 nM
IC50 (Karpas-299): 34 nM
IC50 (REC-1): 17 nM
IC50 (PLC-PRF5): 25 nM
IC50 (HRT-18): 11 nM
IC50 (SK-N-MC): 14 nM
IC50 (HUT-78): 20 nM
IC50 (U2OS): 12 nM
IC50 (CCRF-CEM): 27 nM
IC50 (HGC-27): 9 nM
IC50 (HEP-2): 10 nM
IC50 (SW-872): 18 nM
IC50 (A4573): 21 nM
IC50 (NALM-6): 30 nM
IC50 (HL-60): 48 nM
IC50 (WEHI-164): 31 nM
IC50 (H-1299): 5 nM
IC50 (U87-MG): 11 nM
IC50 (PANC-1): 21 nM
Compound: Cc1nc2ccc(F)cc2n1-c1nc(N)c(F)c(Nc2ccc(C(F)(F)F)cc2)n1 [Unesbulin]

Compound: COc1cccc2c1C(=O)c1c(O)c3c(c(O)c1C2=O)C[C@@](O)(C(=O)CO)C[C@@H]3O[C@H]1C[C@H](N)[C@H](O)[C@H](C)O1 [doxorubicin]
IC50 (CHRF): 681 nM
IC50 (MESSA): 71 ± 56 nM
IC50 (CMK): 844 nM

Source: publication doi:10.64898/2025.12.10.692519v1 (biorxiv, 2025)
